The source of these data is patent US20230416225A1, “DIAMINOPYRIMIDINE CARBOXAMIDE INHIBITORS OF HPK1” (MERCK SHARP & DOHME LLC, priority 2020, published 2023).

The target of this assay is T1, Human HPK1, catalytic domain (Homo sapiens, UniProt Q92918).
T1 construct: purchased Carna
T1 sequence (Q92918 1-346): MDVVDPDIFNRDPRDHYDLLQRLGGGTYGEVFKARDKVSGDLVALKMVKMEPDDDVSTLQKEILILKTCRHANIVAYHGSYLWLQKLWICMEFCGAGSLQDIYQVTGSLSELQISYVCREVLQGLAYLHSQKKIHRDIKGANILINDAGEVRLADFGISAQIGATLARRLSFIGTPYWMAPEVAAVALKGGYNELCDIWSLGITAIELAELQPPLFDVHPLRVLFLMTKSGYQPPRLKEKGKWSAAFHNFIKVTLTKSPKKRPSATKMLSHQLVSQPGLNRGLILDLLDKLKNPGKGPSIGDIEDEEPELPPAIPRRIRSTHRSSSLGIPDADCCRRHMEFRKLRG
The assay is described as follows: HPK1-SLP76 TR-FRET assay. As to conditions: 75 pM HPK1, 10 uM ATP, 10 nM SLP76, 30 min compound pre-incubation. In kind it is biochemical. In general terms: TR-FRET usually uses a lanthanide donor and a delayed reading to cut background.

On to `Cn1cc(Nc2ncc(C(N)=O)c(N[C@H](CO)C3CCCCC3)n2)cn1` [Example 26-49, 4-{[(1S)-1-cyclohexyl-2-hydroxyethyl]amino}-2-[(1-methyl-1H-pyrazol-4-yl)amino]pyrimidine-5-carboxamide], for which the IC50 (commonly the midpoint of a concentration-inhibition curve) turned out to be 78.8 nM. This lies in the double-digit nanomolar range.

In turn, `COc1cc2c(cc1Nc1ncc(C(N)=O)c(NC3CCC(F)(F)C3)n1)CN(C)CC2` (centres unmarked) [Example 26-38, 4-[(3,3-difluorocyclopentyl)amino]-2-[(6-methoxy-2-methyl-1,2,3,4-tetrahydroisoquinolin-7-yl)amino]pyrimidine-5-carboxamide] gave an IC50 of 1.07 nM.

In the case of `COc1cc2c(cc1Nc1ncc(C(N)=O)c(Nc3ccc(C)cc3)n1)CN(C)CC2` [Example 7-24, 2-[(6-methoxy-2-methyl-1,2,3,4-tetrahydroisoquinolin-7-yl)amino]-4-[(4-methylphenyl)amino]pyrimidine-5-carboxamide], the IC50 came out at 0.4 nM.

`COc1cc2c(cc1Nc1ncc(C(N)=O)c(Nc3cccc(Br)c3)n1)CN(C)CC2` [Example 7-71, 4-[(3-bromophenyl)amino]-2-[(6-methoxy-2-methyl-1,2,3,4-tetrahydroisoquinolin-7-yl)amino]pyrimidine-5-carboxamide] showed an IC50 of 1.49 nM. This IC50 is about 3.7-fold higher than that of the compound before.

With `NC(=O)c1cnc(Nc2ccc(CC(F)(F)F)cc2)nc1Nc1cccc2c1CCNC2=O` [Example 25-44, 4-[(1-oxo-1,2,3,4-tetrahydroisoquinolin-5-yl)amino]-2-{[4-(2,2,2-trifluoroethyl)phenyl]amino}pyrimidine-5-carboxamide], the IC50 stood at 1.95 nM. The IC50 values of the last two compounds are within 1.5-fold of each other.

On to `COc1cc(F)c(Nc2nc(Nc3cc4c(cc3OC)CCN(C)C4)ncc2C(N)=O)c(F)c1` [Example 4-15, 4-[(2,6-difluoro-4-methoxyphenyl)amino]-2-[(6-methoxy-2-methyl-1,2,3,4-tetrahydroisoquinolin-7-yl)amino]pyrimidine-5-carboxamide], for which the IC50 came out at 0.53 nM.

`COc1cc2c(cc1Nc1ncc(C(N)=O)c(N[C@@H]3CCCC[C@H]3C(F)F)n1)CN(C)CC2` [Example 26-33, 4-{[(1R,2R)-2-(difluoromethyl)cyclohexyl]amino}-2-[(6-methoxy-2-methyl-1,2,3,4-tetrahydroisoquinolin-7-yl)amino]pyrimidine-5-carboxamide] returned an IC50 of 0.46 nM.

Turning to `CNCc1ccccc1Nc1nc(Nc2cc3c(cc2OC)CCN(C)C3)ncc1C(N)=O` [Example 2-4, 2-[(6-methoxy-2-methyl-1,2,3,4-tetrahydroisoquinolin~7-yl)amino]-4-({2-[(methylamino)methyl]-phenyl}amino)pyrimidine-5-carboxamide], the IC50 was determined as 0.63 nM.

The compound `COC(=O)C1CC2CC(CC(Nc3nc(Nc4cc5c(cc4OC)CCN(C)C5)ncc3C(N)=O)C2)C1` (centres unmarked) [Example 26-13, methyl 7-({5-carbamoyl-2-[(6-methoxy-2-methyl-1,2,3,4-tetrahydroisoquinolin-7-yl)amino]pyrimidin-4-yl}amino)bicyclo[3.3.1]nonane-3-carboxylate] displayed an IC50 of 0.6 nM.

Take `Cc1cccc(F)c1Nc1nc(Nc2cnn(CC(C)(C)O)c2)ncc1C(N)=O` [Example 4-23, 4-[(2-fluoro-6-methylphenyl)amino]-2-{[1-(2-hydroxy-2-methylpropyl)-1H-pyrazol-4-yl]amino}pyrimidine-5-carboxamide]: the IC50 amounted to 443 nM.

With `COc1cc2c(cc1Nc1ncc(C(N)=O)c(Nc3cccc(CNC(=O)C4(F)CC4)c3)n1)CN(C)CC2` [Example 3-1, 4~[(3~{[(1-fluorocyclo-propane-1-carbonyl)amino]-methyl}phenyl)amino]-2-[(6-methoxy-2-methyl-1,2,3,4-tetrahydroiso-quinolin-7-yl)amino]-pyrimidine-5-carboxamide], the IC50 is 0.56 nM. This IC50 is about 790-fold lower than that of the compound before.

Take `COc1cc2c(cc1Nc1ncc(C(N)=O)c(Nc3c(C)noc3C)n1)CN(C)CC2` [Example 7-83, 4-((3,5-dimethylisoxazol-4-yl)amino)-2-((6-methoxy-2-methyl-1,2,3,4-tetrahydroisoquinolin-7-yl)amino)pyrimidine-5-carboxamide]: 4.84 nM corresponded to half-maximal inhibition (IC50).

The compound `COc1cc2c(cc1Nc1ncc(C(N)=O)c(NCc3ccncc3)n1)CN(C)CC2` [Example 26-55, 2-[(6-methoxy-2-methyl-1,2,3,4-tetrahydroisoquinolin-7-yl)amino]-4-{[(pyridin-4-yl)methyl]amino}pyrimidine-5-carboxamide] had an IC50 of 224 nM.

Consider `COc1cc2c(cc1Nc1ncc(C(N)=O)c(N[C@@H]3c4ccccc4C[C@@H]3O)n1)CN(C)CC2` [Example 26-64, 4-{[(1R,2S)-2-hydroxy-2,3-dihydro-1H-inden-1-yl]amino}-2-[(6-methoxy-2-methyl-1,2,3,4-tetrahydroisoquinolin-7-yl)amino]pyrimidine-5-carboxamide], for which the IC50 worked out at 0.86 nM.

`COc1cc2c(cc1Nc1ncc(C(N)=O)c(Nc3cccc4c3CCN(S(C)(=O)=O)C4)n1)CN(C)CC2` [Example 7-31, 2-[(6-methoxy-2-methyl-1,2,3,4-tetrahydroisoquinolin-7-yl)amino]-4-{[2-(methylsulfonyl)-1,2,3,4-tetrahydroisoquinolin-5-yl]amino}pyrimidine-5-carboxamide]: half-maximal inhibition (IC50) was put at 0.15 nM.

With `COc1cc(C2CCNCC2)ccc1Nc1ncc(C(N)=O)c(Nc2ccccc2C(F)(F)F)n1` [Example 8-2, 2-((2-methoxy-4-(piperidin-4-yl)phenyl)amino)-4-((2-(trifluoromethyl)phenyl)amino)pyrimidine-5-carboxamide], half-maximal inhibition (IC50) was put at 11.7 nM.

As for `COc1cc2c(cc1Nc1ncc(C(N)=O)c(NC3CC4C5CCC(C5)C34)n1)CN(C)CC2` (centres unmarked) [Example 26-15, 2-[(6-methoxy-2-methyl-1,2,3,4-tetrahydroisoquinolin-7-yl)amino]-4-[(tricyclo[4.2.1.0~2,5~]nonan-3-yl)amino]pyrimidine-5-carboxamide], half-maximal inhibition (IC50) required 0.25 nM.

Take `CC(C)(C)c1cccc(Nc2ncc(C(N)=O)c(Nc3cccc4c3CCNC4=O)n2)c1` [Example 25-20, 2-[(3-tert-butylphenyl)amino]-4-[(1-oxo-1,2,3,4-tetrahydroisoquinolin-5-yl)amino]pyrimidine-5-carboxamide]: the IC50 worked out at 3.31 nM.

Compound `N#CC1(c2ccc(Nc3ncc(C(N)=O)c(Nc4ccccc4CO)n3)cc2)CC1` [Example 7-108, 2-{[4-(1-cyanocyclopropyl)phenyl]amino}-4-{[2-(hydroxymethyl)phenyl]amino}py-rimidine-5-carboxamide] displayed an IC50 of 4.17 nM.

In the case of `NC(=O)c1cnc(Nc2cnn(C3CCNCC3)c2)nc1NC1CCc2cc(F)c(F)cc21` (centres unmarked) [Example 26-50, 4-[(5,6-difluoro-2,3-dihydro-1H-inden-1-yl)amino]-2-{[1-(piperidin-4-yl)-1H-pyrazol-4-yl]amino}pyrimidine-5-carboxamide], the midpoint of inhibition, the IC50, lay at 40.6 nM.

For `N#CC1(c2ccc(Nc3ncc(C(N)=O)c(Nc4ccccc4Br)n3)cc2)CC1` [Example 7-100, 4-[(2-bromophenyl)amino]-2-{[4-(1-cyanocyclopropyl)phenyl]amino} pyrimidine-5-carboxamide], the IC50 amounted to 30 nM. This IC50 and that of the compound before are within 1.5-fold of each other.

In turn, `COc1cc2c(cc1Nc1ncc(C(N)=O)c(Nc3c(F)cccc3C(F)(F)F)n1)CN(CC(C)(C)O)CC2` [Example 5-1, 4-((2-Fluoro-6-(trifluoromethyl)phenyl)amino)-2-((2-(2-hydroxy-2-methylpropyl)-6-methoxy-1,2,3,4-tetrahydroisoquinolin-7-yl)amino)pyrimidine-5-carboxamide] showed an IC50 of 2.97 nM. Compared with the last compound, the IC50 is about 10-fold lower.

`COc1cc2c(cc1Nc1ncc(C(N)=O)c(NCc3cccc(C#N)c3)n1)CN(C)CC2` [Example 26-58, 4-{[(3-cyanophenyl)methyl]amino}-2-[(6-methoxy-2-methyl-1,2,3,4-tetrahydroisoquinolin-7-yl)amino]pyrimidine-5-carboxamide]: the IC50 came to 9.83 nM.

`COc1cc2c(cc1Nc1ncc(C(N)=O)c(Nc3ccccc3I)n1)CN(C)CC2` [Example 7-70, 4-[(2-iodophenyl)amino]-2-[(6-methoxy-2-methyl-1,2,3,4-tetrahydroisoquinolin-7-yl)amino]pyrimidine-5-carboxamide]: the IC50 is 0.15 nM.

In turn, `COc1cc2c(cc1Nc1ncc(C(N)=O)c(Nc3ccccc3C[C@@H](O)c3ccccc3)n1)CN(C)CC2` [Example 13-10, 4-({2-[(2R)-2-hydroxy-2-phenylethyl]phenyl}amino)-2-[(6-methoxy-2-methyl-1,2,3,4-tetrahydroisoquinolin-7-yl)amino]pyrimidine-5-carboxamide] gave an IC50 of 326 nM.

Take `COc1cc2c(cc1Nc1ncc(C(N)=O)c(Nc3c(F)cccc3C(F)(F)F)n1)CN(C)CC21CC1` [Example 21-1, 4-((2-fluoro-6-(trifluoromethyl)phenyl)amino)-2-((6′-methoxy-2′-methyl-2′,3′-dihydro-1′H-spiro[cyclopropane-1,4′-isoquinolin]-7′-yl)amino)pyrimidine-5-carboxamide]: the IC50 worked out at 0.21 nM.

On to `CS(=O)(=O)Cc1ccc(Nc2ncc(C(N)=O)c(Nc3ccccc3CO)n2)cc1` [Example 7-68, 4-{[2-(hydroxymethyl)phenyl]amino}-2-({4-[(methylsulfonyl)methyl]phenyl}amino)pyrimidine-5-carboxamide], for which the IC50 is 14 nM.

As for `NC(=O)c1cnc(Nc2cccc(F)c2)nc1Nc1cccc2c1CCNC2=O` [Example 25-10, 2-[(3-fluorophenyl)amino]-4-[(1-oxo-1,2,3,4-tetrahydroisoquinolin-5-yl)amino]pyrimidine-5-carboxamide], half-maximal inhibition (IC50) was put at 1.22 nM.

In the case of `NC(=O)c1cnc(Nc2cc(F)cc(F)c2)nc1Nc1cccc2c1CCNC2=O` [Example 25-31, 2-[(3,5-difluorophenyl)amino]-4-[(1-oxo-1,2,3,4-tetrahydroisoquinolin-5-yl)amino]pyrimidine-5-carboxamide], the IC50 is 29.6 nM.
